In brackets after ≈: the same amount, converted by molar mass. Where two headings read alike, the source gives them in different places. Non-standard residues stand in square brackets, D forms with d. Residues, ends and D or L forms follow the SMILES beside them. No end group written: not given here.
Tests used:
P. aeruginosa ZEM-1A = assay: microbe, parasite or virus in culture; conditions: for MIC P. aeruginosa ZEM-1A, 12.5% MHB / MIC P. aeruginosa ZEM-1A, full MHB: clinical isolate, 16–20 h at 37 °C, cells marked c: single measurement (in duplicates); for MIC P. aeruginosa ZEM-1A, 12.5% MHB: 12.5% MHB pH 7.4; for MIC P. aeruginosa ZEM-1A, full MHB: full MHB pH 7.4; for MIC P. aeruginosa ZEM-1A: supplement CSV
Summary of the method: (§1)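 Minimal inhibitory concentrations come from broth microdilution in MH medium, with a top peptide concentration of 64 μg/mL halved serially.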

P. aeruginosa PA14 = assay: microbe, parasite or virus in culture; conditions: for MIC P. aeruginosa PA14, 12.5% MHB: 12.5% MHB pH 7.4; for MIC P. aeruginosa PA14, 12.5% MHB / MIC P. aeruginosa PA14, full MHB: 16–20 h at 37 °C, two different duplicate MIC determinations; for MIC P. aeruginosa PA14, full MHB: full MHB pH 7.4; for MIC P. aeruginosa PA14: supplement CSV
Summary of the method: as §1

[1] = system: P. aeruginosa PA14 2P4 (pmrB); assay: microbe, parasite or virus in culture; conditions: for MIC P. aeruginosa PA14 2P4 (pmrB), 12.5% MHB / MIC P. aeruginosa PA14 2P4 (pmrB), full MHB: polymyxin B resistant strain, 16–20 h at 37 °C; for MIC P. aeruginosa PA14 2P4 (pmrB), 12.5% MHB: 12.5% MHB pH 7.4; for MIC P. aeruginosa PA14 2P4 (pmrB), full MHB: full MHB pH 7.4; for MIC P. aeruginosa PA14 2P4: supplement CSV
Summary of the method: as §1

P. aeruginosa ZEM9A = assay: microbe, parasite or virus in culture; conditions: for MIC P. aeruginosa ZEM9A, 12.5% MHB / MIC P. aeruginosa ZEM9A, full MHB: clinical isolate, 16–20 h at 37 °C; for MIC P. aeruginosa ZEM9A, 12.5% MHB: 12.5% MHB pH 7.4; for MIC P. aeruginosa ZEM9A, full MHB: full MHB pH 7.4; for MIC P. aeruginosa ZEM9A: supplement CSV
Summary of the method: as §1

E. cloacae = assay: microbe, parasite or virus in culture; conditions: for MIC E. cloacae, 12.5% MHB: 12.5% MHB pH 7.4; for MIC E. cloacae, 12.5% MHB / MIC E. cloacae, full MHB: 16–20 h at 37 °C; for MIC E. cloacae, full MHB: full MHB pH 7.4; for MIC E. cloacae: supplement CSV
Summary of the method: as §1

human red blood cells = assay: Hemolysis assay, minimum hemolytic concentration; conditions: for Haemolysis on hRBC, MHC: 2.5% human red blood cells (final) in 10 mM phosphate, 150 mM NaCl, pH 7.4, 25 °C, 4 h, visual inspection; for MHC human red blood cells: supplement CSV
[2] = system: P. aeruginosa PA14 4.18 (pmrB); conditions: for MIC P. aeruginosa PA14 4.18 (pmrB), 12.5% MHB / MIC P. aeruginosa PA14 4.18 (pmrB), full MHB: polymyxin B resistant strain, 16–20 h at 37 °C; for MIC P. aeruginosa PA14 4.18 (pmrB), 12.5% MHB: 12.5% MHB pH 7.4; for MIC P. aeruginosa PA14 4.18 (pmrB), full MHB: full MHB pH 7.4; for MIC P. aeruginosa PA14 4.18: supplement CSV

Molecule	MIC P. aeruginosa ZEM-1A, 12.5% MHB (P. aeruginosa ZEM-1A)	MIC P. aeruginosa ZEM-1A, full MHB (P. aeruginosa ZEM-1A)	MIC P. aeruginosa ZEM-1A (P. aeruginosa ZEM-1A; 12.5% MH pH 7.4) [µg/mL]	MIC P. aeruginosa PA14, 12.5% MHB (P. aeruginosa PA14)	MIC P. aeruginosa PA14, full MHB (P. aeruginosa PA14)	MIC P. aeruginosa PA14 (P. aeruginosa PA14; 12.5% MH pH 7.4) [µg/mL]	MIC P. aeruginosa PA14 (P. aeruginosa PA14; full MH pH 7.4) [µg/mL]	MIC P. aeruginosa PA14 2P4 (pmrB), 12.5% MHB [1] [µg/mL]	MIC P. aeruginosa PA14 2P4 ([1]; 12.5% MH pH 7.4) [µg/mL]	MIC P. aeruginosa ZEM9A, 12.5% MHB (P. aeruginosa ZEM9A)	MIC P. aeruginosa ZEM9A, full MHB (P. aeruginosa ZEM9A)	MIC P. aeruginosa ZEM9A (P. aeruginosa ZEM9A; 12.5% MH pH 7.4) [µg/mL]	MIC P. aeruginosa ZEM9A (P. aeruginosa ZEM9A; full MH pH 7.4) [µg/mL]	MIC E. cloacae, 12.5% MHB (E. cloacae) [µg/mL]	MIC E. cloacae, full MHB (E. cloacae) [µg/mL]	MIC E. cloacae (E. cloacae; 12.5% MH pH 7.4) [µg/mL]	MIC P. aeruginosa PA14 4.18 (pmrB), 12.5% MHB [2]	MIC P. aeruginosa PA14 4.18 (pmrB), full MHB [2]	MIC P. aeruginosa PA14 4.18 ([2]; 12.5% MH pH 7.4) [µg/mL]	MIC P. aeruginosa PA14 4.18 ([2]; full MH pH 7.4) [µg/mL]	also measured
CC[C@H](C)[C@H](NC(=O)[C@H](CCCNC(=N)N)NC(=O)[C@H](CCCNC(=N)N)NC(=O)[C@@H]1CCCN1C(=O)[C@@H]1CCCN1C(=O)[C@H](CCCNC(=N)N)NC(=O)[C@@H]1CCCN1C(=O)[C@H](CCCNC(=N)N)NC(=O)[C@@H]1CCCN1C(=O)[C@@H](CC(C)C)NC(=O)[C@H](Cc1ccc(O)cc1)NC(=O)[C@@H]1CCCN1C(=O)[C@@H]1CCCN1C(=O)[C@H](CCCCN)NC(=O)[C@H](CC(=O)O)NC(=O)[C@@H](N)C(C)C)C(=O)N[C@@H](Cc1ccc(O)cc1)C(=O)N[C@@H](CC(N)=O)C(=O)N[C@@H](CCCNC(=N)N)C(N)=O [DL7-Onc] (H-VDKPPY[dL]PRPRPPRRIYNR-NH2)	>64/>64 ^c μg/mL	>64/>64 ^c μg/mL	>64	>32/>32 μg/mL	>32/>32 μg/mL	>32	>32	32 (≈ 13.4 µM)	32 (≈ 13.4 µM)	>64/>64 μg/mL	>64/>64 μg/mL	>64	>64	32 (≈ 13.4 µM)	> 64	32 (≈ 13.4 µM)	>32/>32 μg/mL	>32/>32 μg/mL	>32	>32	MIC P. aeruginosa ZEM-1A (P. aeruginosa ZEM-1A; full MH pH 7.4): >64 µg/mL; MIC P. aeruginosa PA14 2P4 (pmrB), full MHB [1]: > 64 µg/mL; MIC P. aeruginosa PA14 2P4 ([1]; full MH pH 7.4): >64 µg/mL; MIC E. cloacae (E. cloacae; full MH pH 7.4): >64 µg/mL; Haemolysis on hRBC, MHC (human red blood cells): >1000 µg/mL; MHC human red blood cells (human red blood cells): >1000 µg/mL
CC[C@@H](C)[C@@H](NC(=O)[C@@H](CCCNC(=N)N)NC(=O)[C@@H](CCCNC(=N)N)NC(=O)[C@H]1CCCN1C(=O)[C@H]1CCCN1C(=O)[C@@H](CCCNC(=N)N)NC(=O)[C@H]1CCCN1C(=O)[C@@H](CCCNC(=N)N)NC(=O)[C@H]1CCCN1C(=O)[C@@H](CC(C)C)NC(=O)[C@@H](Cc1ccc(O)cc1)NC(=O)[C@H]1CCCN1C(=O)[C@H]1CCCN1C(=O)[C@@H](CCCCN)NC(=O)[C@@H](CC(=O)O)NC(=O)[C@H](N)C(C)C)C(=O)N[C@H](Cc1ccc(O)cc1)C(=O)N[C@H](CC(N)=O)C(=O)N[C@H](CCCNC(=N)N)C(N)=O [D-Onc] (H-[dV][dD][dK][dP][dP][dY][dL][dP][dR][dP][dR][dP][dP][dR][dR][dI][dY][dN][dR]-NH2)	>64/>64 ^c μg/mL	>64/>64 ^c μg/mL	>64	32 µg/mL (≈ 13.4 µM)	> 64 µg/mL	32 (≈ 13.4 µM)	>64	8 (≈ 3.35 µM)	8 (≈ 3.35 µM)	32 µg/mL (≈ 13.4 µM)	> 64 µg/mL	32 (≈ 13.4 µM)	>64	16 (≈ 6.69 µM)	> 64	16 (≈ 6.69 µM)	16 µg/mL (≈ 6.69 µM)	> 64 µg/mL	16 (≈ 6.69 µM)	>64	MIC P. aeruginosa ZEM-1A (P. aeruginosa ZEM-1A; full MH pH 7.4): >64 µg/mL; MIC P. aeruginosa PA14 2P4 (pmrB), full MHB [1]: > 64 µg/mL; MIC P. aeruginosa PA14 2P4 ([1]; full MH pH 7.4): >64 µg/mL; MIC E. cloacae (E. cloacae; full MH pH 7.4): >64 µg/mL; Haemolysis on hRBC, MHC (human red blood cells): >1000 µg/mL; MHC human red blood cells (human red blood cells): >1000 µg/mL
VDKPPYLPRPRPPRRIYNR-NH2 [L-Onc, reference compound]	8 to 16 µg/mL		8 to 16	32 µg/mL	> 64 µg/mL	32	>64	16	16	32 µg/mL	> 64 µg/mL	32	>64	1	32	1	32 µg/mL	> 64 µg/mL	32	>64	MIC P. aeruginosa PA14 2P4 (pmrB), full MHB [1]: > 64 µg/mL; MIC P. aeruginosa PA14 2P4 ([1]; full MH pH 7.4): >64 µg/mL; MIC E. cloacae (E. cloacae; full MH pH 7.4): 32 µg/mL; Haemolysis on hRBC, MHC (human red blood cells): >1000 µg/mL; MHC human red blood cells (human red blood cells): >1000 µg/mL
polymyxin B [PMB, reference compound]	8 µg/mL	16 µg/mL	8	1 µg/mL	< 0.5 µg/mL	1	<0.5	1	1	2 µg/mL	> 64 µg/mL	2	>64	1 to 2	2	1 to 2	1 µg/mL	2 µg/mL	1	2	MIC P. aeruginosa ZEM-1A (P. aeruginosa ZEM-1A; full MH pH 7.4): 16 µg/mL; MIC P. aeruginosa PA14 2P4 (pmrB), full MHB [1]: 4 µg/mL; MIC P. aeruginosa PA14 2P4 ([1]; full MH pH 7.4): 4 µg/mL
CC[C@H](C)[C@H](NC(=O)[C@@H](CCCNC(=N)N)NC(=O)[C@H](CCCNC(=N)N)NC(=O)[C@@H]1CCCN1C(=O)[C@@H]1CCCN1C(=O)[C@H](CCCNC(=N)N)NC(=O)[C@@H]1CCCN1C(=O)[C@H](CCCNC(=N)N)NC(=O)[C@@H]1CCCN1C(=O)[C@H](CC(C)C)NC(=O)[C@H](Cc1ccc(O)cc1)NC(=O)[C@@H]1CCCN1C(=O)[C@@H]1CCCN1C(=O)[C@H](CCCCN)NC(=O)[C@H](CC(=O)O)NC(=O)[C@@H](N)C(C)C)C(=O)N[C@@H](Cc1ccc(O)cc1)C(=O)N[C@@H](CC(N)=O)C(=O)N[C@H](CCCNC(=N)N)C(N)=O [Onc112, reference compound] (H-VDKPPYLPRPRPPR[dR]IYN[dR]-NH2)	8 µg/mL (≈ 3.35 µM)	32 µg/mL (≈ 13.4 µM)	8 (≈ 3.35 µM)	16 µg/mL (≈ 6.69 µM)	> 32 µg/mL	16 (≈ 6.69 µM)	>32	4 to 8	4 to 8	8 µg/mL (≈ 3.35 µM)	> 64 µg/mL	8 (≈ 3.35 µM)	>64	1 (≈ 0.418 µM)	2 (≈ 0.837 µM)	1 (≈ 0.418 µM)	16 µg/mL (≈ 6.69 µM)	> 32 µg/mL	16 (≈ 6.69 µM)	>32	MIC P. aeruginosa ZEM-1A (P. aeruginosa ZEM-1A; full MH pH 7.4): 32 µg/mL (≈ 13.4 µM); MIC E. cloacae (E. cloacae; full MH pH 7.4): 2 µg/mL (≈ 0.837 µM); Haemolysis on hRBC, MHC (human red blood cells): >1000 µg/mL; MHC human red blood cells (human red blood cells): >1000 µg/mL
